US9987399B2, “Non-biodegradable stent comprising a biodegradable coating and method of coating the same” (Nanyang Technological University, priority 2007, dated 2018)

Tested on: platelets (platelet rich plasma)
Experiment: In vitro thrombogenicity/platelet adhesion, dynamic method with I-125 labeled PRP
Assay type: cell-based, Human
Settings: 10% loading in PLGA 80/20 coating on metal strips, 2 hours perfusion at 40 mL min^−1; FIG. 5
Protocol: Metal strips with coatings of PLGA 80/20 containing varying amounts of triflusal (4, 7 and 10 wt %) were tested for thrombogenicity/platelet adhesion using a dynamic method. Human blood was collected and anti-coagulated. Platelet rich plasma (PRP) was then prepared from the blood, and labeled with radioactive iodine, I-125. The test samples were exposed to this labeled PRP for 2 hours under perfusion at a flow rate of 40 mL min^−1. Radioscintigraphy was then used on the washed and rinsed metal-coated strips, to count the number of adhered platelets.

CC(=O)Oc1cc(C(F)(F)F)ccc1C(=O)O [triflusal]
platelet adhesion: effective at reducing platelet adhesion
